The species named for assay [1] is Cavia porcellus. Nature of the assay: Antagonist activity was determined by partial agonist activity of EK in Guinea pig ileum (GPI). It counts as functional.
The species entered for assay [2] is Cavia porcellus. Nature of the assay: Antagonist activity was determined by partial agonist activity of morphine in Guinea pig ileum (GPI). It counts as functional.
Assay [3] is filed under the species Cavia porcellus. Nature of the assay: Opioid agonist activity was determined as potency ratio relative to morphine in Guinea pig ileum (GPI). It counts as functional.
The species named for assay [4] is Mus musculus. As to the kind of experiment: IC50 ratio for leucine-enkephalin rather than DADLE determined in Mouse vas deferens (MVD). Format: functional.
The species named for assay [5] is Mus musculus. Nature of the assay: Opioid agonist activity was determined in Mouse vas deferens (MVD). It counts as functional.
For assay [6], the species on record is Cavia porcellus. Nature of the assay: Antagonist activity was determined by partial agonist activity of EK in Guinea pig ileum (GPI); irreversible agonist activity. Format: functional, organism-based.
The species named for assay [7] is Cavia porcellus. As to the kind of experiment: Antagonist activity was determined by partial agonist activity of morphine in Guinea pig ileum (GPI); irreversible agonist activity. Format: functional, organism-based.

In general, IC20 refers to the concentration at which the effect reaches the 20% level. Low readings indicate an effect from little substance, high ones a need for much substance.

On to `CN(CCCl)[C@@H]1CC[C@@]2(O)C3Cc4ccc(O)c5c4C2(CCN3CC2CC2)[C@H]1O5` (stereo not given in full), for which the results for the IC50 ratio in the assay listed under Cavia porcellus [1], in the assay filed under Cavia porcellus [2] and in the assay filed under Mus musculus [4] were 17.3, 48.8 and 2.9, respectively. The Potency ratio in the assay filed under Cavia porcellus [3] is on record as 5.3. This compound gave an IC20 in the assay listed under Mus musculus [5] of 10 nM.

Take `CN(CCCl)[C@H]1CC[C@@]2(O)C3Cc4ccc(O)c5c4C2(CCN3CC2CC2)[C@H]1O5` (stereo not given in full): the IC50 ratio entry in the assay filed under Cavia porcellus [6] is listed as “irreversible agonist activity”; in the assay filed under Cavia porcellus [7], “irreversible agonist activity”; in the assay filed under Mus musculus [4], 5. For the same compound, in the assay filed under Cavia porcellus [3], the Potency ratio came out at 159. The IC20 in the assay filed under Mus musculus [5] is 3 nM.

The values are drawn from ChEMBL document CHEMBL1123748, “Opioid agonist and antagonist activities of monofunctional nitrogen mustard analogues of beta-chlornaltrexamine” (1987).
